The values below are quoted from earlier work in US6929797B2, “Targeted therapeutic delivery of vitamin D compounds” (Bone Care International, Inc., priority 1997, dated 2005).

Read-outs that look alike come from different tables or passages of the source.

Test in data set [1]: not given
The source holds these as a separate data set.

The conditions of data set [2]: 0.5 μg/day, postmenopausal women.

On to `C=C1/C(=C\C=C2/CCC[C@]3(C)[C@@H]([C@H](C)CCCC(C)(C)O)CC[C@@H]23)C[C@@H](O)C[C@@H]1O` [1α,25-dihydroxyvitamin D3], for which the “effects on bone mass or mineral content” value (dosage levels below 0.5 μg/day) is “no effects”. In addition, the “toxicity (hypercalcemia and hypercalciuria)” value in data set [1] (above 0.5 μg/day) was “frequently resulted in toxicity”. For the same compound, in data set [2], the “intestinal calcium absorption and calcium balance” value is “improved”.
Turning to `C=C1/C(=C\C=C2/CCC[C@]3(C)[C@@H]([C@H](C)CCCC(C)C)CC[C@@H]23)C[C@@H](O)C[C@@H]1O` [1α-hydroxyvitamin D3], the “efficacy (bone mass or bone mineral content)” value (1 μg/day, Japan, population with low calcium intake) was “efficacy is found”. In addition, the bone mass entry (Two μg/day, patients exhibiting senile osteoporosis) was “efficacy in increasing bone mass”. In addition, the “patients in whom toxicity occurs” value in data set [1] (1 μg/day) is given as “approximately 20%”; in data set [1] (2 μg/day), “approximately 67%”.
